Experimental data reported in the supplement of paper PMC4862054.

Test system: BT-474
Experiment: normalised response (% of control), CellTox Green; higher = less cell death (100 = DMSO, 0 = benzethonium chloride kill control)
Settings: incubation time: 72 h
Outline: (§1)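 A 20 µl suspension of breast cancer cells was seeded into each well of 384-well plates containing compound at 5 concentrations in 10-fold steps over a compound-specific 10,000-fold range. After 72 h incubation, CellTox Green fluorescence (485/520 nm) was read first, and CellTiter-Glo luminescence was read after 10 min at room temperature. Each plate was normalised against 0.1 % DMSO (100) and a positive kill control (0), and each value is the normalised signal at one concentration.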

| Compound | normalised response [%] |
| --- | --- |
| Nc1nc(OCc2cc(Br)cs2)c2[nH]cnc2n1 [Lomeguatrib] (100 nM) | 102 |
| CN1CCN(CCOc2cc(OC3CCOCC3)c3c(Nc4c(Cl)ccc5c4OCO5)ncnc3c2)CC1 [Saracatinib] (100 nM) | 99.5 |
| O=C(O)CCCc1ccc(N(CCCl)CCCl)cc1 [Chlorambucil] (100 nM) | 101 |
| c1ccc([C@H]2CN3CCSC3=N2)cc1 [Levamisole] (100 nM) | 100 |
| Cn1cncc1[C@@](N)(c1ccc(Cl)cc1)c1ccc2c(c1)c(-c1cccc(Cl)c1)cc(=O)n2C [Tipifarnib] (100 nM) | 98.2 |
| CC(C)(C#N)c1cc(Cn2cncn2)cc(C(C)(C)C#N)c1 [Anastrozole] (100 nM) | 102 |
| CN(C)CCN1C(=O)c2cccc3cc(N)cc(c23)C1=O [Amonafide] (100 nM) | 98.5 |
| CNNCc1ccc(C(=O)NC(C)C)cc1 [Procarbazine] (100 nM) | 102 |
| Nc1ncnc2c1c(COc1cccc(Cl)c1)nn2C1CCOCC1 (100 nM) | 102 |

Test system: BT-549
Experiment: as above
Settings: incubation time: 72 h
Outline: as §1

| Compound | normalised response [%] |
| --- | --- |
| Nc1nc(OCc2cc(Br)cs2)c2[nH]cnc2n1 [Lomeguatrib] (100 nM) | 95.1 |
| O=C(O)CCCc1ccc(N(CCCl)CCCl)cc1 [Chlorambucil] (100 nM) | 101 |
| c1ccc([C@H]2CN3CCSC3=N2)cc1 [Levamisole] (100 nM) | 99.2 |
| Cn1cncc1[C@@](N)(c1ccc(Cl)cc1)c1ccc2c(c1)c(-c1cccc(Cl)c1)cc(=O)n2C [Tipifarnib] (100 nM) | 107 |
| CC(C)(C#N)c1cc(Cn2cncn2)cc(C(C)(C)C#N)c1 [Anastrozole] (100 nM) | 103 |
| CN(C)CCN1C(=O)c2cccc3cc(N)cc(c23)C1=O [Amonafide] (100 nM) | 106 |
| CNNCc1ccc(C(=O)NC(C)C)cc1 [Procarbazine] (100 nM) | 102 |
| Nc1ncnc2c1c(COc1cccc(Cl)c1)nn2C1CCOCC1 (100 nM) | 98.5 |

Test system: CAL-120
Experiment: as above
Settings: incubation time: 72 h
Outline: as §1

| Compound | normalised response [%] |
| --- | --- |
| Nc1nc(OCc2cc(Br)cs2)c2[nH]cnc2n1 [Lomeguatrib] (100 nM) | 100 |
| CN1CCN(CCOc2cc(OC3CCOCC3)c3c(Nc4c(Cl)ccc5c4OCO5)ncnc3c2)CC1 [Saracatinib] (100 nM) | 99 |
| O=C(O)CCCc1ccc(N(CCCl)CCCl)cc1 [Chlorambucil] (100 nM) | 92.9 |
| c1ccc([C@H]2CN3CCSC3=N2)cc1 [Levamisole] (100 nM) | 102 |
| Cn1cncc1[C@@](N)(c1ccc(Cl)cc1)c1ccc2c(c1)c(-c1cccc(Cl)c1)cc(=O)n2C [Tipifarnib] (100 nM) | 90.6 |
| CC(C)(C#N)c1cc(Cn2cncn2)cc(C(C)(C)C#N)c1 [Anastrozole] (100 nM) | 99.9 |
| CN(C)CCN1C(=O)c2cccc3cc(N)cc(c23)C1=O [Amonafide] (100 nM) | 97.8 |
| CNNCc1ccc(C(=O)NC(C)C)cc1 [Procarbazine] (100 nM) | 103 |
| Nc1ncnc2c1c(COc1cccc(Cl)c1)nn2C1CCOCC1 (100 nM) | 103 |

Test system: CAL-148
Experiment: as above
Settings: incubation time: 72 h
Outline: as §1

| Compound | normalised response [%] |
| --- | --- |
| Nc1nc(OCc2cc(Br)cs2)c2[nH]cnc2n1 [Lomeguatrib] (100 nM) | 63.5 |
| CN1CCN(CCOc2cc(OC3CCOCC3)c3c(Nc4c(Cl)ccc5c4OCO5)ncnc3c2)CC1 [Saracatinib] (100 nM) | 84.5 |
| c1ccc([C@H]2CN3CCSC3=N2)cc1 [Levamisole] (100 nM) | 103 |
| Cn1cncc1[C@@](N)(c1ccc(Cl)cc1)c1ccc2c(c1)c(-c1cccc(Cl)c1)cc(=O)n2C [Tipifarnib] (100 nM) | 92.2 |
| CC(C)(C#N)c1cc(Cn2cncn2)cc(C(C)(C)C#N)c1 [Anastrozole] (100 nM) | 106 |
| CN(C)CCN1C(=O)c2cccc3cc(N)cc(c23)C1=O [Amonafide] (100 nM) | 99.3 |
| CNNCc1ccc(C(=O)NC(C)C)cc1 [Procarbazine] (100 nM) | 102 |
| Nc1ncnc2c1c(COc1cccc(Cl)c1)nn2C1CCOCC1 (100 nM) | 107 |

Test system: CAL-51
Experiment: as above
Settings: incubation time: 72 h
Outline: as §1

| Compound | normalised response [%] |
| --- | --- |
| Nc1nc(OCc2cc(Br)cs2)c2[nH]cnc2n1 [Lomeguatrib] (100 nM) | 92.9 |
| CN1CCN(CCOc2cc(OC3CCOCC3)c3c(Nc4c(Cl)ccc5c4OCO5)ncnc3c2)CC1 [Saracatinib] (100 nM) | 90.7 |
| O=C(O)CCCc1ccc(N(CCCl)CCCl)cc1 [Chlorambucil] (100 nM) | 85.3 |
| c1ccc([C@H]2CN3CCSC3=N2)cc1 [Levamisole] (100 nM) | 112 |
| Cn1cncc1[C@@](N)(c1ccc(Cl)cc1)c1ccc2c(c1)c(-c1cccc(Cl)c1)cc(=O)n2C [Tipifarnib] (100 nM) | 63.4 |
| CC(C)(C#N)c1cc(Cn2cncn2)cc(C(C)(C)C#N)c1 [Anastrozole] (100 nM) | 73.3 |
| CN(C)CCN1C(=O)c2cccc3cc(N)cc(c23)C1=O [Amonafide] (100 nM) | 95.2 |
| CNNCc1ccc(C(=O)NC(C)C)cc1 [Procarbazine] (100 nM) | 112 |
| Nc1ncnc2c1c(COc1cccc(Cl)c1)nn2C1CCOCC1 (100 nM) | 101 |

Test system: CAL-85-1
Experiment: as above
Settings: incubation time: 72 h
Outline: as §1

| Compound | normalised response [%] |
| --- | --- |
| Nc1nc(OCc2cc(Br)cs2)c2[nH]cnc2n1 [Lomeguatrib] (100 nM) | 103 |
| CN1CCN(CCOc2cc(OC3CCOCC3)c3c(Nc4c(Cl)ccc5c4OCO5)ncnc3c2)CC1 [Saracatinib] (100 nM) | 88.8 |
| O=C(O)CCCc1ccc(N(CCCl)CCCl)cc1 [Chlorambucil] (100 nM) | 94.9 |
| c1ccc([C@H]2CN3CCSC3=N2)cc1 [Levamisole] (100 nM) | 107 |
| Cn1cncc1[C@@](N)(c1ccc(Cl)cc1)c1ccc2c(c1)c(-c1cccc(Cl)c1)cc(=O)n2C [Tipifarnib] (100 nM) | 108 |
| CC(C)(C#N)c1cc(Cn2cncn2)cc(C(C)(C)C#N)c1 [Anastrozole] (100 nM) | 101 |
| CN(C)CCN1C(=O)c2cccc3cc(N)cc(c23)C1=O [Amonafide] (100 nM) | 101 |
| CNNCc1ccc(C(=O)NC(C)C)cc1 [Procarbazine] (100 nM) | 99.7 |
| Nc1ncnc2c1c(COc1cccc(Cl)c1)nn2C1CCOCC1 (100 nM) | 108 |

Test system: DU-4475
Experiment: as above
Settings: incubation time: 72 h
Outline: as §1

| Compound | normalised response [%] |
| --- | --- |
| Nc1nc(OCc2cc(Br)cs2)c2[nH]cnc2n1 [Lomeguatrib] (100 nM) | 101 |
| CN1CCN(CCOc2cc(OC3CCOCC3)c3c(Nc4c(Cl)ccc5c4OCO5)ncnc3c2)CC1 [Saracatinib] (100 nM) | 102 |
| O=C(O)CCCc1ccc(N(CCCl)CCCl)cc1 [Chlorambucil] (100 nM) | 102 |
| c1ccc([C@H]2CN3CCSC3=N2)cc1 [Levamisole] (100 nM) | 101 |
| Cn1cncc1[C@@](N)(c1ccc(Cl)cc1)c1ccc2c(c1)c(-c1cccc(Cl)c1)cc(=O)n2C [Tipifarnib] (100 nM) | 98.1 |
| CC(C)(C#N)c1cc(Cn2cncn2)cc(C(C)(C)C#N)c1 [Anastrozole] (100 nM) | 103 |
| CN(C)CCN1C(=O)c2cccc3cc(N)cc(c23)C1=O [Amonafide] (100 nM) | 97.2 |
| CNNCc1ccc(C(=O)NC(C)C)cc1 [Procarbazine] (100 nM) | 107 |
| Nc1ncnc2c1c(COc1cccc(Cl)c1)nn2C1CCOCC1 (100 nM) | 109 |

Test system: HCC1143
Experiment: as above
Settings: incubation time: 72 h
Outline: as §1

| Compound | normalised response [%] |
| --- | --- |
| Nc1nc(OCc2cc(Br)cs2)c2[nH]cnc2n1 [Lomeguatrib] (100 nM) | 96.5 |
| CN1CCN(CCOc2cc(OC3CCOCC3)c3c(Nc4c(Cl)ccc5c4OCO5)ncnc3c2)CC1 [Saracatinib] (100 nM) | 56.8 |
| O=C(O)CCCc1ccc(N(CCCl)CCCl)cc1 [Chlorambucil] (100 nM) | 94.9 |
| c1ccc([C@H]2CN3CCSC3=N2)cc1 [Levamisole] (100 nM) | 93.9 |
| Cn1cncc1[C@@](N)(c1ccc(Cl)cc1)c1ccc2c(c1)c(-c1cccc(Cl)c1)cc(=O)n2C [Tipifarnib] (100 nM) | 104 |
| CC(C)(C#N)c1cc(Cn2cncn2)cc(C(C)(C)C#N)c1 [Anastrozole] (100 nM) | 102 |
| CN(C)CCN1C(=O)c2cccc3cc(N)cc(c23)C1=O [Amonafide] (100 nM) | 114 |
| CNNCc1ccc(C(=O)NC(C)C)cc1 [Procarbazine] (100 nM) | 99.4 |
| Nc1ncnc2c1c(COc1cccc(Cl)c1)nn2C1CCOCC1 (100 nM) | 95.8 |

Test system: HCC1599
Experiment: as above
Settings: incubation time: 72 h
Outline: as §1

| Compound | normalised response [%] |
| --- | --- |
| Nc1nc(OCc2cc(Br)cs2)c2[nH]cnc2n1 [Lomeguatrib] (100 nM) | 100 |
| CN1CCN(CCOc2cc(OC3CCOCC3)c3c(Nc4c(Cl)ccc5c4OCO5)ncnc3c2)CC1 [Saracatinib] (100 nM) | 94.3 |
| O=C(O)CCCc1ccc(N(CCCl)CCCl)cc1 [Chlorambucil] (100 nM) | 99 |
| c1ccc([C@H]2CN3CCSC3=N2)cc1 [Levamisole] (100 nM) | 104 |
| Cn1cncc1[C@@](N)(c1ccc(Cl)cc1)c1ccc2c(c1)c(-c1cccc(Cl)c1)cc(=O)n2C [Tipifarnib] (100 nM) | 107 |
| CC(C)(C#N)c1cc(Cn2cncn2)cc(C(C)(C)C#N)c1 [Anastrozole] (100 nM) | 102 |
| CN(C)CCN1C(=O)c2cccc3cc(N)cc(c23)C1=O [Amonafide] (100 nM) | 115 |
| CNNCc1ccc(C(=O)NC(C)C)cc1 [Procarbazine] (100 nM) | 98.7 |
| Nc1ncnc2c1c(COc1cccc(Cl)c1)nn2C1CCOCC1 (100 nM) | 114 |

Test system: HCC1937
Experiment: as above
Settings: incubation time: 72 h
Outline: as §1

| Compound | normalised response [%] |
| --- | --- |
| Nc1nc(OCc2cc(Br)cs2)c2[nH]cnc2n1 [Lomeguatrib] (100 nM) | 104 |
